Assays:
Assay type in all cases: in vivo
[1] = tested on: corn plants, commercial 111 day, central corn belt variety; experiment: Corn stomatal conductance; settings: for Average Stomatal Conductance (% of Control), 6 DAS: 6 days after spraying; for Average Stomatal Conductance (% of Control), 16 DAS: 16 days after spraying; for Relative potency resulting in a 25% reduction in transpiration, times that seen with S-ABA: regression of the data in Table 5
Method: (§1) In this greenhouse experiment, foliar spray treatments containing 3′-methyl-(S)-abscisic acid, 3′-propargyl-(S)-abscisic acid or (S)-abscisic acid were applied to corn plants to evaluate their effect on gas exchange, as measured through stomatal conductance. Corn plants of a commercial, 111 day, central corn belt variety were grown in the greenhouse under optimal conditions for five weeks and were size-matched into ten groups of five plants. Using an aerosol sprayer, each group was sprayed to drip (25 milliliters per plant) with solutions containing a non-ionic surfactant (0.125%, v/v) and water (control), 2.5 mg, 7.5 mg or 25 mg/plant 3′-methyl-(S)-abscisic acid, or 2.5 mg, 7.5 mg or 25 mg/plant 3′-propargyl-(S)-abscisic acid, or 7.5 mg, 25 mg or 75 mg/plant (5)-ABA, respectively. After spraying, plants were returned to the greenhouse for the duration of the experiment. Stomatal conductance was measured using an AP4 porometer (Delta T Devices, Cambridge, UK) and the conductance for each plant was recorded at approximately the same time of day (˜10 AM) prior to treatment application as well as 1, 2, 5, 6, 9 and 16 days post-spraying.

[2] = tested on: corn plants, commercial 111 day, central corn belt variety; experiment: Corn plant leaf rolling assay and shoot fresh weight under drought; settings: for Shoot Fresh Weight, 15 DAS: 12 days drought then 3 days watering; for Average # of Rolled Leaves/Plant, 5 DAS / Average # of Rolled Leaves/Plant, 6 DAS / Average # of Rolled Leaves/Plant, 8 DAS: water withheld; for Average # of Rolled Leaves/Plant, 5 DAS: 5 days after spraying; for Average # of Rolled Leaves/Plant, 6 DAS: 6 days after spraying; for Average # of Rolled Leaves/Plant, 8 DAS: 8 days after spraying
Method: as §1, with “post-spraying. This study was conducted as described above with the following the exceptions. After spraying, plants were put back in the greenhouse and water was withheld for twelve days, simulating drought stress. The plants were then watered to saturation for three consecutive days before the plant shoots were cut at the soil surface and subsequently weighed in grams (fresh weight). Leaf-rolling data and fresh weight data were recorded for each plant following treatment application at the times specified below in Table 6.” for “post-spraying.”

[3] = tested on: corn seed of a common inbred parental line; experiment: Corn plant emergence after seed treatment; settings: for Additional delay in emergence in comparison with S-ABA: 80 μg/seed rate; for Relative potency of S-ABA, dose required to delay the median emergence time by two days: regression; for Delay in Median Emergence Time Compared to Control / Median Time to Emergence: 20.5° C.
Method: Corn seed of a common inbred parental line were treated using standard seed treatment equipment with water (control), 40 μg, 80 μg or 160 μg/seed S-ABA, 10 μg, 20 μg, 40 μg or 80 μg/seed 3′-methyl-(S)-abscisic acid, or 10 μg, 20 μg, 40 μg or 80 μg/seed 3′-propargyl-(S)-abscisic acid. Post treatment, the seeds were planted in 12×3×2″ plastic boxes containing one kilogram of sieved, pre-moistened field soil. Fifty seeds were planted in each box at three centimeter depth and two replicate boxes per treatment at 20.5° C. under constant illumination. Two replications of the experiment were incubated under constant light in a 20.5° C. growth chamber. Emergence counts were recorded almost daily until seedling emergence had ceased (42 days). Daily counts were converted to proportions of the final emergence to estimate the median emergence time for each box.

soybean plants = experiment: Soybean drought tolerance (stomatal conductance); settings: for Reduction in stomatal conductance at 1 day post spraying: 300 mg/l foliar spray; for Percent Conductance (stomatal conductance, control = 100%), Day 1 / Percent Conductance (stomatal conductance, control = 100%), Day 2 / Percent Conductance (stomatal conductance, control = 100%), Day 5 / Percent Conductance (stomatal conductance, control = 100%), Day 6 / Percent Conductance (stomatal conductance, control = 100%), Day 7: foliar spray 300 mg/l, 0.3 mg/plant
Method: In this study, soybean plants were grown for 10 days under ambient lab temperature conditions and illumination of 150 umol m^2 s^−1 and a 16:8 photoperiod. At spraying, the primary leaves were fully expanded and the first trifoliate leaves were partially expanded. The plants were sprayed to dampness with solutions of water, S-ABA, 3′-methyl-(S)-abscisic acid, or 3′-propargyl-(S)-abscisic acid containing 0.025% (v/v) non-ionic surfactant. At times following spraying, the conductance of the primary leaves was measured using an AP4 porometer (Delta T Devices, Cambridge, UK) to evaluate the effect on stomatal conductance. A decrease in stomatal aperture, reflected in the conductance measures, is an immediate and direct effect of applied S-ABA. To simplify the data, the controls were always set to 100%. In Table 9, the effect of spray applications on the stomatal conductance was measured.

[4] = foliar spray 100 ppm or 2.5 mg/plant
[5] = foliar spray 300 ppm or 7.5 mg/plant
[6] = foliar spray 1000 ppm or 25 mg/plant

Structure (SMILES): CC1=C(C)[C@](O)(/C=C/C(C)=C\C(=O)O)C(C)(C)CC1=O [3′-methyl-(S)-ABA, (2Z,4E)-5-((S)-1-hydroxy-2,3,6,6-tetramethyl-4-oxocyclohex-2-en-1-yl)-3-methylpenta-2,4-dienoic acid]
- Average Stomatal Conductance (% of Control), 6 DAS [1, 4]: 93.3 % of Control
- Average Stomatal Conductance (% of Control), 16 DAS [1, 4]: 98.3 % of Control
- Average Stomatal Conductance (% of Control), 6 DAS [1, 5]: 70.6 % of Control
- Average Stomatal Conductance (% of Control), 16 DAS [1, 5]: 79.4 % of Control
- Average Stomatal Conductance (% of Control), 6 DAS [1, 6]: 69.6 % of Control
- Average Stomatal Conductance (% of Control), 16 DAS [1, 6]: 74.5 % of Control
- Relative potency resulting in a 25% reduction in transpiration, times that seen with S-ABA [1]: 1.97 times
- Shoot Fresh Weight, 15 DAS ([2]; 100 ppm or 2.5 mg/plant): 256.0 grams
- Average # of Rolled Leaves/Plant, 5 DAS ([2]; 100 ppm or 2.5 mg/plant): 1.6
- Average # of Rolled Leaves/Plant, 6 DAS ([2]; 100 ppm or 2.5 mg/plant): 4.6
- Average # of Rolled Leaves/Plant, 8 DAS ([2]; 100 ppm or 2.5 mg/plant): 9.0
- Shoot Fresh Weight, 15 DAS ([2]; 300 ppm or 7.5 mg/plant): 276.6 grams
- Average # of Rolled Leaves/Plant, 5 DAS ([2]; 300 ppm or 7.5 mg/plant): 2.0
- Average # of Rolled Leaves/Plant, 6 DAS ([2]; 300 ppm or 7.5 mg/plant): 3.6
- Average # of Rolled Leaves/Plant, 8 DAS ([2]; 300 ppm or 7.5 mg/plant): 8.4
- Shoot Fresh Weight, 15 DAS ([2]; 1000 ppm or 25 mg/plant): 373.4 grams
- Average # of Rolled Leaves/Plant, 6 DAS ([2]; 1000 ppm or 25 mg/plant): 2.2
- Average # of Rolled Leaves/Plant, 8 DAS ([2]; 1000 ppm or 25 mg/plant): 7.2
- Additional delay in emergence in comparison with S-ABA [3]: 5.6 calendar days
- Relative potency of S-ABA, dose required to delay the median emergence time by two days [3]: 2.2 times
- Delay in Median Emergence Time Compared to Control ([3]; seed treatment 10 μg/seed): 4.9 days
- Median Time to Emergence ([3]; seed treatment 10 μg/seed): 9.7 days
- Delay in Median Emergence Time Compared to Control ([3]; seed treatment 20 μg/seed): 7.9 days
- Median Time to Emergence ([3]; seed treatment 20 μg/seed): 12.7 days
- Delay in Median Emergence Time Compared to Control ([3]; seed treatment 40 μg/seed): 11.1 days
- Median Time to Emergence ([3]; seed treatment 40 μg/seed): 16.0 days
- Delay in Median Emergence Time Compared to Control ([3]; seed treatment 80 μg/seed): 13.8 days
- Median Time to Emergence ([3]; seed treatment 80 μg/seed): 18.6 days
- Reduction in stomatal conductance at 1 day post spraying (soybean plants): 89%
- Percent Conductance (stomatal conductance, control = 100%), Day 1 (soybean plants): 11%
- Percent Conductance (stomatal conductance, control = 100%), Day 2 (soybean plants): 18%
- Percent Conductance (stomatal conductance, control = 100%), Day 5 (soybean plants): 36%
- Percent Conductance (stomatal conductance, control = 100%), Day 6 (soybean plants): 68%
- Percent Conductance (stomatal conductance, control = 100%), Day 7 (soybean plants): 79%

Structure (SMILES): C#CCC1=C(C)[C@](O)(/C=C/C(C)=C\C(=O)O)C(C)(C)CC1=O [3′-propargyl-(S)-ABA, (2Z,4E)-5-((S)-1-hydroxy-2,6,6-trimethyl-4-oxo-3-(prop-2-yn-1-yl)cyclohex-2-en-1-yl)-3-methylpenta-2,4-dienoic acid]
- Average Stomatal Conductance (% of Control), 6 DAS [1, 4]: 80.6 % of Control
- Average Stomatal Conductance (% of Control), 16 DAS [1, 4]: 87.7 % of Control
- Average Stomatal Conductance (% of Control), 6 DAS [1, 5]: 74.3 % of Control
- Average Stomatal Conductance (% of Control), 16 DAS [1, 5]: 77.9 % of Control
- Average Stomatal Conductance (% of Control), 6 DAS [1, 6]: 56.0 % of Control
- Average Stomatal Conductance (% of Control), 16 DAS [1, 6]: 59.0 % of Control
- Relative potency resulting in a 25% reduction in transpiration, times that seen with S-ABA [1]: 4.83 times
- Shoot Fresh Weight, 15 DAS ([2]; 100 ppm or 2.5 mg/plant): 263.9 grams
- Average # of Rolled Leaves/Plant, 5 DAS ([2]; 100 ppm or 2.5 mg/plant): 1.8
- Average # of Rolled Leaves/Plant, 6 DAS ([2]; 100 ppm or 2.5 mg/plant): 3.8
- Average # of Rolled Leaves/Plant, 8 DAS ([2]; 100 ppm or 2.5 mg/plant): 7.2
- Shoot Fresh Weight, 15 DAS ([2]; 300 ppm or 7.5 mg/plant): 313.1 grams
- Average # of Rolled Leaves/Plant, 5 DAS ([2]; 300 ppm or 7.5 mg/plant): 1.8
- Average # of Rolled Leaves/Plant, 6 DAS ([2]; 300 ppm or 7.5 mg/plant): 3.6
- Average # of Rolled Leaves/Plant, 8 DAS ([2]; 300 ppm or 7.5 mg/plant): 8.0
- Shoot Fresh Weight, 15 DAS ([2]; 1000 ppm or 25 mg/plant): 334.4 grams
- Average # of Rolled Leaves/Plant, 5 DAS ([2]; 1000 ppm or 25 mg/plant): 0.0
- Average # of Rolled Leaves/Plant, 6 DAS ([2]; 1000 ppm or 25 mg/plant): 0.0
- Average # of Rolled Leaves/Plant, 8 DAS ([2]; 1000 ppm or 25 mg/plant): 7.0
- Additional delay in emergence in comparison with S-ABA [3]: 14.3 calendar days
- Relative potency of S-ABA, dose required to delay the median emergence time by two days [3]: 2.6 times
- Delay in Median Emergence Time Compared to Control ([3]; seed treatment 10 μg/seed): 8.6 days
- Median Time to Emergence ([3]; seed treatment 10 μg/seed): 13.4 days
- Delay in Median Emergence Time Compared to Control ([3]; seed treatment 20 μg/seed): 11.3 days
- Median Time to Emergence ([3]; seed treatment 20 μg/seed): 16.2 days
- Delay in Median Emergence Time Compared to Control ([3]; seed treatment 40 μg/seed): 16.2 days
- Median Time to Emergence ([3]; seed treatment 40 μg/seed): 21.0 days
- Delay in Median Emergence Time Compared to Control ([3]; seed treatment 80 μg/seed): 22.4 days
- Median Time to Emergence ([3]; seed treatment 80 μg/seed): 27.3 days
- Reduction in stomatal conductance at 1 day post spraying (soybean plants): 92%
- Percent Conductance (stomatal conductance, control = 100%), Day 1 (soybean plants): 8%
- Percent Conductance (stomatal conductance, control = 100%), Day 2 (soybean plants): 14%
- Percent Conductance (stomatal conductance, control = 100%), Day 5 (soybean plants): 33%
- Percent Conductance (stomatal conductance, control = 100%), Day 6 (soybean plants): 52%
- Percent Conductance (stomatal conductance, control = 100%), Day 7 (soybean plants): 57%

Source: patent US10314307B2, “(S)-abscisic acid derivatives for improving plant stress tolerance” (Valent BioSciences Corporation, priority 2015, dated 2019)
